According to patent publication US10047151B2, “Methods for the treatment of cancer and inflammatory diseases using cereblon as a predictor” (Celgene Corporation, priority 2011, dated 2018):

Legend:
Type in all cases: cell-based
U266B1 cells = assay: Cell cycle progression (cells in S phase) in siRNA-transfected U266B1 cells; details: control mock and negative control siRNA-transfected cells; average of 3 days of treatment; pomalidomide 1 μM, lenalidomide 10 μM
Procedure: Drugs such as lenalidomide and pomalidomide have direct anti-proliferative activity against MM cells by inducing cell cycle arrest in G1 phase, followed by a decrease in viability. To study the role of CRBN in lenalidomide and other drugs anti-proliferative activities, H929 and U266B1 cells, two sensitive myeloma lines, were transfected with CRBN-siRNAs or control siRNAs for 24, 48, 72 and 96 hours. Cells were treated 24 h after transfection with DMSO (0.1%), pomalidomide (1 μM) and lenalidomide (10 μM) for 1, 2, 3 days to evaluated the compound effect on CRBN protein, mRNA expression and the effect on cell cycle and proliferation. […] CRBN down regulation was confirmed by RT-PCR and Western blot using the CRBN70 antibody (FIG. 1).
Knockdown of CRBN markedly abrogated the lenalidomide and pomalidomide-induced delay in cell cycle progression in U266B1 cells. Id.

H929 cells = assay: Cell cycle progression (cells in S phase) in siRNA-transfected H929 cells; details: 72 h treatment
Procedure: The effect of CRBN in H929 cells was also evaluated. H929 cells were transfected with mock, negative control siRNA and CRBN-siRNA-7 for 24, 48, 72 and 96 h. Cells were treated 24 h after transfection with DMSO (0.1%), pomalidomide (1 μM), lenalidomide (10 μM) or 3-(5-amino-2-methyl-4-oxo-4H-quinazolin-3-yl)-piperidine-2,6-dione (“Compound B”) for 1, 2, 3 days and the effect on cell cycle and proliferation investigated. Lenalidomide, pomalidomide and Compound B induced a delay of cell cycle progression, measured as the decrease of the number of cells in S phase, in control mock and negative control siRNA-transfected cells after 72 h treatment (FIG. 2C). Knockdown of CRBN markedly abrogated immunomodulatory drugs-induced delay in cell cycle progression in H929 cells (FIG. 2C) from of 50 to 4% for lenalidomide, from 70 to 15% for pomalidomide, and from 65 to 22% for Compound B.

CRBN = CRBN mRNA and protein expression after drug treatment (RT-PCR, Western blot); details: H929 and U266B1 cells; pomalidomide 1 μM, lenalidomide 10 μM
pRb = pRb phosphorylation in H929 cells (Western blot)
IRF4 = IRF4 protein level in H929 cells (Western blot)
Excerpt: In H929 cells, the cell cycle arrest in G1 phase by the drugs coincides with a reduction of tumor suppressor, pRb, phosphorylation and the oncogene and myeloma survival factor IRF4.

poly-ubiquitin chains = assay: Global polyubiquitination by immunofluorescence in H929 cells; details: 1 μM, 30 minutes
Procedure: Specific antibodies for poly-ubiquitin chains were used to study the effect of immunomodulatory drugs on global levels of ubiquitination. H929 cells were treated with lenalidomide (1 μM), pomalidomide (1 μM) or proteasome inhibitor MG132. After 30 minutes cells were process for immunofluorescence. Global levels of K63-linked polyubiquitination were quantified by Cellomics.

NF-κB [1] = assay: NF-κB-driven luciferase reporter gene assay in DLBCL cells; details: OCI-Ly10 and U2932; 2 day drug treatment
Procedure: For the NF-κB-driven luciferase reporter gene assay, cells were transfected with the pGL4.32 [luc2P/NF-κB-RE/Hygro] plasmid (Promega, Madison, Wis.) using Nucleofector kit V and program 013 according to the manufacturer's protocol (Amaxa Biosystems, Gaithersburg, Md.). After 24 hours of transfection, cells were treated with test agents for 2 days and lysates were prepared using the Dual-Glo® Luciferase Assay System (Promega). Luciferase activities of each sample were measured using a TopCount NXT Microplate Scintillation and Luminescence Counter (Packard BioScience).
To knockdown IRF4, cells were transfected with Silencer® Select siRNA (small interfering RNA, Applied Biosystems) directed against IRF4, CRBN, or Silencer® Select Negative Control siRNAs at a final concentration of 0.2-1 μM using Nucleofector® Kit V for transfection. For IRF4 overexpression, cells were transfected with IRF4- or green fluorescent protein (GFP)-cytomegalovirus (CMV) expression plasmids (OriGene Technologies, Rockville, Md.) for 24 h using the Cell Line Nucleofector kit V as above-mentioned. After 24 hours of transfection, cells were treated with lenalidomide for 2 days before luciferase assay, RT-PCR gene expression analysis and Western blot. […]

NF-κB [2] = assay: NF-κB subunit DNA binding ELISA on nuclear extracts
Procedure: Logarithmically growing DLBCL cells were treated with test agents as indicated. Nuclear extracts were prepared using a Nuclear Extract Kit (Active Motif, Carlsbad, Calif.) and protein concentration was determined by the bicinchoninic acid assay (Thermo Scientific, Rockford, Ill.). Detection of NF-κB activity was performed using a sensitive oligo-based colorimetric enzyme-linked immunosorbent assay (ELISA) method, according to the instructions of the manufacturer (Active Motif). Briefly, nuclear extracts of DLBCL cells were hybridized to 96-well plates coated with wild-type DNA oligonucleotides containing a single copy of the NF-κB consensus binding sequence. Bound NF-κB protein was then detected with antibodies specific for p50, p65 (Rel A) or […] subunits. A secondary antibody conjugated to horseradish peroxidase was added and plates were then read by spectrophotometry at 450 nm with a reference wavelength of 655 nm. NF-κB activity was calculated based on OD450/655 nm.
The effect of lenalidomide on NF-κB activity in various DLBCL cells was examined by measuring the level of NF-κB subunit proteins binding to consensus sequences and the NF-κB-driven luciferase activity. […] In contrast, lenalidomide had no effect on NF-κB DNA binding in GCB-DLBCL lines nor in normal peripheral blood mononuclear cells.

In the case of `Nc1cccc2c1CN(C1CCC(=O)NC1=O)C2=O` (stereo not drawn) [lenalidomide, 3-(4-amino-1-oxo-1,3-dihydro-isoindol-2-yl)-piperidine-2,6-dione], the “delay of cell cycle progression, measured as the decrease of the number of cells in S phase” value (U266B1 cells) was 40%, the “delay in cell cycle progression (decrease of the number of cells in S phase)” value (H929 cells; H929 cells with knockdown of CRBN) was 4% and the “delay in cell cycle progression (decrease of the number of cells in S phase)” value (H929 cells; control mock and negative control siRNA-transfected H929 cells) was 50%. For the same compound, the “mRNA and protein expression of CRBN” value (CRBN) was “affected neither mRNA nor protein expression of CRBN significantly”, the “phosphorylation of pRB” value (pRb) was “decreased” and the “total level of protein IRF4” value (IRF4) was “decreased”. For the same compound, the K-63-linked ubiquitination (poly-ubiquitin chains) was “but not K-63-linked ubiquitination”, the “total K48-linked polyubiquitination” value (poly-ubiquitin chains) was “decrease” and the “inhibition of transcriptional activity of NF-κB” value (NF-κB [1]) was 32-56%. For the same compound, the “NF-κB DNA binding” value (NF-κB [2]; GCB-DLBCL lines and normal peripheral blood mononuclear cells) was “no effect”, the NF-κB inhibition (NF-κB [2]; lenalidomide-insensitive ABC-DLBCL OCI-Ly3 line with CARD11 mutation) was “not by lenalidomide” and the “DNA binding by Rel A/p65, p50 and c-rel/p70 NF-κB subunits” value (NF-κB [2]; several ABC-DLBCL cell lines, concentration-dependent) was “partially inhibited”.
